Consider 18 compounds from PubChem BioAssay (NCI).

Some test systems named below: CAKI-1 renal; CCRF-CEM leukemia; OVCAR-8 ovarian; MOLT-4 leukemia; A549 NSCLC; HCT-116 colon; HOP-92 NSCLC; SR leukemia.
Holding throughout (test): NCI-60 cell line screen, 48 h

Molecules are shown by their SMILES.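 Test compounds were applied to cells in 96-well plates for 48 hours at 5 doses. The concentration for full growth arrest is given as TGI.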

Regarding `CC1=C2N3C[C@@H](n4c(=O)n(C)c(=O)n43)C23CCC1n1c(=O)n(C)c(=O)n13`, the TGI in the assay on CAKI-1 renal, in the assay with CCRF-CEM leukemia, in the assay with OVCAR-8 ovarian and in the assay with MOLT-4 leukemia was greater than 100 µM throughout.

Take `CCCCCCCCCCCCC(SCCNC(=O)CCNC(=O)C(O)C(C)(C)COP(=O)(O)OP(=O)(O)OCC1OC(n2cnc3c(N)ncnc32)C(O)C1OP(=O)(O)O)C(=O)NCC(N)=O` (stereo not drawn): the TGI in the assay on A549 NSCLC, with HCT-116 colon, in the assay on CCRF-CEM leukemia, in the assay on OVCAR-8 ovarian and in the assay on HOP-92 NSCLC was greater than 100 µM in each case.

For `COc1ccc(/C=[N+](\[O-])[C@H](COCc2ccccc2)c2ccccc2)cc1`, the TGI with HCT-116 colon, in the assay with CCRF-CEM leukemia, with OVCAR-8 ovarian, in the assay with MOLT-4 leukemia and in the assay with HOP-92 NSCLC was greater than 100 µM each time.

With `c1cncc(C2c3[nH]c4ccccc4c3CCN2CCN2CCCCC2)c1` (stereo not drawn), the TGI in the assay with CAKI-1 renal, in the assay on SR leukemia, in the assay on A549 NSCLC, in the assay on HCT-116 colon, in the assay on CCRF-CEM leukemia and with OVCAR-8 ovarian was greater than 100 µM throughout. The TGI with MOLT-4 leukemia and in the assay on HOP-92 NSCLC was greater than 100 µM in each case.

Take `COc1ccc2c(C3(O)CCNCC3)c[nH]c2c1`: the TGI in the assay on CAKI-1 renal, in the assay on A549 NSCLC, in the assay on CCRF-CEM leukemia, in the assay on OVCAR-8 ovarian, in the assay with MOLT-4 leukemia and in the assay on HOP-92 NSCLC was greater than 100 µM throughout.

In the case of `CCCc1ccc(N=Cc2cc(OC)c(OC)c(OC)c2)cc1`, the TGI in the assay with CAKI-1 renal, in the assay with SR leukemia, in the assay with A549 NSCLC, with HCT-116 colon, with CCRF-CEM leukemia and in the assay with OVCAR-8 ovarian was greater than 100 µM in each case. In addition, the TGI with MOLT-4 leukemia and in the assay with HOP-92 NSCLC was greater than 100 µM each time.

For the compound `COC(=O)c1ccc(OCc2ccc3oc(=O)c(-c4ccccc4)nc3c2)cc1`, the TGI was greater than 100 µM in the assay with CAKI-1 renal; greater than 100 µM with SR leukemia; greater than 100 µM with A549 NSCLC; greater than 100 µM in the assay on HCT-116 colon; 72.7 µM in the assay on CCRF-CEM leukemia; greater than 100 µM in the assay on OVCAR-8 ovarian. The same compound showed a TGI in the assay on MOLT-4 leukemia greater than 100 µM.

Turning to `O=C(c1ccco1)N(C(=S)N1CCN(c2ccccc2)CC1)c1ccccc1`, the TGI in the assay on CAKI-1 renal, with SR leukemia, with A549 NSCLC, with HCT-116 colon, with CCRF-CEM leukemia and in the assay on OVCAR-8 ovarian was greater than 100 µM in each case. Moreover, the TGI in the assay with MOLT-4 leukemia and with HOP-92 NSCLC was greater than 100 µM each time.

As for `CCOC(=O)C(=O)Nc1c(C)cccc1CC`, the TGI in the assay on CAKI-1 renal, in the assay with SR leukemia, in the assay on A549 NSCLC, with HCT-116 colon, with CCRF-CEM leukemia and in the assay on OVCAR-8 ovarian was greater than 100 µM throughout. In addition, the TGI in the assay on MOLT-4 leukemia and in the assay on HOP-92 NSCLC was greater than 100 µM in each case.

Turning to `Cc1c(C(=O)CC(=O)C(=O)NC2C3CC4CC(C3)CC2C4)[n+](=O)c2ccccc2n1[O-]` (stereo not drawn), the TGI with CAKI-1 renal, in the assay with SR leukemia, with A549 NSCLC, in the assay on HCT-116 colon, with CCRF-CEM leukemia and in the assay with OVCAR-8 ovarian was greater than 100 µM each time. Also, the TGI with MOLT-4 leukemia and in the assay with HOP-92 NSCLC was greater than 100 µM each time.

`CC1(C)OC2C(=O)OC(COCc3ccccc3)C2O1` (stereo not drawn): the TGI in the assay with CAKI-1 renal, in the assay with SR leukemia, with A549 NSCLC, with HCT-116 colon, with CCRF-CEM leukemia and with OVCAR-8 ovarian was greater than 100 µM throughout. The TGI with MOLT-4 leukemia and in the assay on HOP-92 NSCLC was greater than 100 µM each time.

Regarding `COc1cccc2c1C1=CC(=O)CCC1C(C)(C)O2` (stereo not drawn), the TGI with CAKI-1 renal, in the assay on A549 NSCLC, in the assay on HCT-116 colon, with CCRF-CEM leukemia, in the assay with OVCAR-8 ovarian and with MOLT-4 leukemia was greater than 100 µM each time. Further, the TGI in the assay on HOP-92 NSCLC is greater than 100 µM.

On to `Cc1cc2occ(C)c(=O)c2c2c1OC(C)(C)S2`, for which the TGI in the assay on SR leukemia, in the assay with A549 NSCLC, in the assay with HCT-116 colon, in the assay on CCRF-CEM leukemia, with OVCAR-8 ovarian and with MOLT-4 leukemia was greater than 100 µM throughout. The TGI with HOP-92 NSCLC is greater than 100 µM.

In the case of `CCOC(=O)c1c2ccc(/C=C/C(=O)OC)ccc-2c(C(=O)OCC)c1N`, the TGI in the assay with CAKI-1 renal, in the assay on A549 NSCLC, with CCRF-CEM leukemia, with MOLT-4 leukemia and in the assay with HOP-92 NSCLC was greater than 100 µM in each case.

Regarding `O=C(O)c1[nH]c(C(=O)O)c(CC(F)(F)C(F)(F)C(F)(F)F)c1CC(F)(F)C(F)(F)C(F)(F)F`, the TGI in the assay on CAKI-1 renal, with A549 NSCLC, in the assay on HCT-116 colon, with CCRF-CEM leukemia, in the assay on OVCAR-8 ovarian and with HOP-92 NSCLC was greater than 100 µM throughout.

For `CCc1cccc(C)c1NC(=O)CC1Sc2ccccc2NC1=O` (stereo not drawn), the TGI with CAKI-1 renal, with A549 NSCLC, with HCT-116 colon, in the assay on CCRF-CEM leukemia, in the assay on OVCAR-8 ovarian and in the assay with MOLT-4 leukemia was greater than 100 µM in each case. Moreover, the TGI in the assay on HOP-92 NSCLC was 99.7 µM.

In the case of `O=c1oc2c3ccc4ccccc4c3n(Cc3nc4ccccc4[nH]3)c2c2ccccc12`, the TGI in the assay with CAKI-1 renal, in the assay with SR leukemia, in the assay on A549 NSCLC, with HCT-116 colon, in the assay with CCRF-CEM leukemia and with OVCAR-8 ovarian was greater than 100 µM in each case. Besides, the TGI with MOLT-4 leukemia and with HOP-92 NSCLC was greater than 100 µM in each case.

Regarding `CC(=O)O/C(C)=C\C(=O)O/N=C(\N)c1ccc(C)cc1`, the TGI is greater than 100 µM with CAKI-1 renal; greater than 100 µM in the assay with SR leukemia; greater than 100 µM with A549 NSCLC; 43.1 µM in the assay on HCT-116 colon; 41.5 µM in the assay with CCRF-CEM leukemia; greater than 100 µM with OVCAR-8 ovarian. Also, the TGI in the assay on MOLT-4 leukemia and in the assay with HOP-92 NSCLC was greater than 100 µM each time.
